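Method: 48-hour compound exposure of cells in 96-well plates, five concentrations, linear interpolation of endpoints. Definition used: TGI = concentration required for complete inhibition of growth.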
Key:
Assay in all cases: DTP human tumour cell line panel, 48 h
PC-3 prostate = test system: PC-3 prostate
T-47D breast = test system: T-47D breast
COLO 205 colon = test system: COLO 205 colon
SN12C renal = test system: SN12C renal
NCI/ADR-RES ovarian = test system: NCI/ADR-RES ovarian
SK-MEL-2 melanoma = test system: SK-MEL-2 melanoma
SK-MEL-5 melanoma = test system: SK-MEL-5 melanoma
BT-549 breast = test system: BT-549 breast
SR leukemia = test system: SR leukemia

CCNC(=S)NNC(=O)C12CC3CC(CC(C3)C1)C2 was tested, and the TGI (PC-3 prostate) was > 100 µM, the TGI (T-47D breast) was > 100 µM and the TGI (COLO 205 colon) was > 100 µM. For the same compound, the TGI (SN12C renal) was > 100 µM, the TGI (NCI/ADR-RES ovarian) was > 100 µM and the TGI (SK-MEL-2 melanoma) was > 100 µM. For the same compound, the TGI (SK-MEL-5 melanoma) was > 100 µM and the TGI (BT-549 breast) was > 100 µM.
In the case of O=C1C=C/C(=N\N=C(c2ccccc2)c2ccccc2)O1, the TGI (PC-3 prostate) was > 10 µM, the TGI (SR leukemia) was > 10 µM and the TGI (T-47D breast) was > 10 µM. For the same compound, the TGI (COLO 205 colon) was > 10 µM, the TGI (SN12C renal) was > 10 µM and the TGI (SK-MEL-5 melanoma) was > 10 µM.
COc1cc2c(cc1OC)C1C3CCCCC3CCN1CC2 (centres undefined) was tested, and the TGI (PC-3 prostate) was > 100 µM, the TGI (SR leukemia) was > 100 µM and the TGI (T-47D breast) was > 100 µM. For the same compound, the TGI (COLO 205 colon) was > 100 µM, the TGI (SN12C renal) was > 100 µM and the TGI (NCI/ADR-RES ovarian) was > 100 µM. The TGI (SK-MEL-2 melanoma) was > 100 µM and the TGI (SK-MEL-5 melanoma) was > 100 µM.
With CC1(C)OC[C@@H](O)[C@H](C#N)CO1 the TGI (PC-3 prostate) was > 100 µM, the TGI (SR leukemia) was > 100 µM and the TGI (T-47D breast) was > 100 µM. For the same compound, the TGI (COLO 205 colon) was > 100 µM, the TGI (SN12C renal) was > 100 µM and the TGI (SK-MEL-2 melanoma) was > 100 µM. For the same compound, the TGI (SK-MEL-5 melanoma) was > 100 µM and the TGI (BT-549 breast) was > 100 µM.
With COc1ccc(-c2nc(SCC(=O)NNC(=S)Nc3ccccc3)[nH]c2-c2ccc(OC)cc2)cc1 the TGI (PC-3 prostate) was 73.7 µM, the TGI (T-47D breast) was 85 µM and the TGI (COLO 205 colon) was 30.4 µM. The TGI (SN12C renal) was 50.8 µM, the TGI (NCI/ADR-RES ovarian) was > 100 µM and the TGI (SK-MEL-2 melanoma) was 34.7 µM. For the same compound, the TGI (SK-MEL-5 melanoma) was 28.4 µM and the TGI (BT-549 breast) was 57 µM.
In the case of COc1cc(O)c2c(c1)C(=O)c1cc3c(c(O)c1C2=O)C(OC1OC(C)C(OC)C(O)C1OC)C(OC)C(C)(O)C3=O (centres undefined), the TGI (PC-3 prostate) was 14.1 µM, the TGI (SR leukemia) was 9.16 µM and the TGI (COLO 205 colon) was 13.3 µM. It also gave a TGI (SK-MEL-2 melanoma) of 23.5 µM, a TGI (SK-MEL-5 melanoma) of 3.86 µM and a TGI (BT-549 breast) of 31.6 µM.
For CCOc1cc(/C=C2/C(C)=NN(c3cccc(Cl)c3)/C2=N/c2nc3ccccc3s2)ccc1O, the TGI (PC-3 prostate) was 43.5 µM, the TGI (SR leukemia) was 81.1 µM and the TGI (T-47D breast) was > 100 µM. For the same compound, the TGI (NCI/ADR-RES ovarian) was 55.9 µM, the TGI (SK-MEL-2 melanoma) was 41.4 µM and the TGI (SK-MEL-5 melanoma) was 40.2 µM.
In the case of CSC1=N/C(=C\c2ccc(C)cc2)C(=O)N1CN1CCCCC1, the TGI (PC-3 prostate) was > 100 µM, the TGI (SR leukemia) was > 100 µM and the TGI (COLO 205 colon) was > 100 µM. For the same compound, the TGI (SN12C renal) was > 100 µM, the TGI (NCI/ADR-RES ovarian) was > 100 µM and the TGI (SK-MEL-2 melanoma) was > 100 µM. The TGI (SK-MEL-5 melanoma) was > 100 µM.
For CCOS(C)(=O)=O, the TGI (PC-3 prostate) was > 100 µM, the TGI (T-47D breast) was > 100 µM and the TGI (COLO 205 colon) was > 100 µM. For the same compound, the TGI (SN12C renal) was > 100 µM, the TGI (NCI/ADR-RES ovarian) was > 100 µM and the TGI (SK-MEL-2 melanoma) was > 100 µM. For the same compound, the TGI (SK-MEL-5 melanoma) was > 100 µM and the TGI (BT-549 breast) was > 100 µM.
COC(C)(C)C1(O)CC[C@@H](C)CC1=O (some centres undefined) was tested, and the TGI (PC-3 prostate) was > 100 µM, the TGI (SR leukemia) was > 100 µM and the TGI (COLO 205 colon) was > 100 µM. The TGI (SN12C renal) was > 100 µM, the TGI (SK-MEL-5 melanoma) was > 100 µM and the TGI (BT-549 breast) was > 100 µM.
In the case of NS(=O)(=O)c1ccc(NC(=S)/N=C/C2=C(O)c3ccccc3C2=O)cc1, the TGI (PC-3 prostate) was > 100 µM, the TGI (SR leukemia) was > 100 µM and the TGI (T-47D breast) was > 100 µM. For the same compound, the TGI (COLO 205 colon) was > 100 µM, the TGI (SN12C renal) was > 100 µM and the TGI (SK-MEL-2 melanoma) was > 100 µM. For the same compound, the TGI (SK-MEL-5 melanoma) was > 100 µM.
With CC(c1ccccc1)N1CCN(C(C)c2ccccc2)CC1 (centres undefined) the TGI (PC-3 prostate) was > 100 µM, the TGI (SR leukemia) was > 100 µM and the TGI (T-47D breast) was > 100 µM. For the same compound, the TGI (SN12C renal) was > 100 µM, the TGI (NCI/ADR-RES ovarian) was > 100 µM and the TGI (SK-MEL-2 melanoma) was > 100 µM. For the same compound, the TGI (SK-MEL-5 melanoma) was 35.7 µM and the TGI (BT-549 breast) was > 100 µM.
In the case of Cn1c(SCc2ccc(F)cc2)nnc1C12CC3CC(CC(C3)C1)C2, the TGI (PC-3 prostate) was > 100 µM, the TGI (SR leukemia) was 93.9 µM and the TGI (T-47D breast) was > 100 µM. The TGI (COLO 205 colon) was 31.6 µM, the TGI (SN12C renal) was > 100 µM and the TGI (NCI/ADR-RES ovarian) was > 100 µM. For the same compound, the TGI (SK-MEL-2 melanoma) was > 100 µM and the TGI (SK-MEL-5 melanoma) was 26.6 µM.

— PubChem BioAssay (NCI)
